According to EP1691802B1, “METHODS FOR THE AMELIORATION OF ENVIRONMENTAL OXIDANT STRESS AND THE REGULATION OF BENEFICIAL GENES” (The Ester C Company, priority 2003, dated 2005):

Test system: white blood cells
Parameters: species or system human
Settings: in vivo, po
Procedure: Three vitamin C preparations and a placebo were tested to determine white blood cell bioavailability and pharmacokinetics in a double-blind, randomized, crossover study in human subjects. The three vitamin C and placebo compositions were • "Test A": ascorbic acid USP • "Test B": a mineral ascorbate (calcium ascorbate) + vitamin C metabolites (principally calcium threonate), in which the metabolites are produced in situ by a process such as disclosed in US Patent 4,822,816 • "Test C": a mineral ascorbate (calcium ascorbate) + vitamin C metabolites (calcium threonate), manufactured by adding calcium threonate to calcium ascorbate. • "Test D": placebo All three vitamin C compositions were standardized to 1000mg vitamin C equivalent per dose tablets.
A total of 15 subjects (all male between the ages of 21 and 50) were divided into three groups of five and were entered into a four-way crossover design study to minimize inter-subject variability, i.e., in which the subjects act as their own controls. […]
Vitamin C levels of the urine, plasma and white blood cells were determined by HPLC. The areas under the curve (AUC) for the ascorbic acid levels detected in white cells, plasma and urine was determined for each group using the trapezoidal rule (Selby, 1979). The data and the standard deviation was analyzed using repeated-measures analysis of variance ([…]). […]

SMILES: O=C1O[C@H]([C@@H](O)CO)C(O)=C1O [Test A, ascorbic acid]
- levels of white cell vitamin C in smokers: lowest levels
